# ChEMBL document CHEMBL6153141, “Design, Synthesis, and Mechanism Study of Novel BMX Inhibitors Based on the Core of 1,3,5-Triazin-2-Amine for the Treatment of Gastric Carcinoma” (J Med Chem, 2025)
# Calls of active or inactive are those of the source. The calls are words filed in the database; no cut-off is given here.
# Tests used:
# [1] = system: HGC-27; assay: Inhibition of colony formation in human HGC-27 cells assessed as decrease in clonogenic ability at 2.5 to 10 uM incubated for 48 hrs by crystal violet staining based analysis; assay type: functional, cell-based; conditions: dose 2.5-10 µM
# [2] = system: HGC-27; assay: Anti-invasive activity in human HGC-27 cells assessed as decrease in invasion ability at 5 to 15 uM incubated for 48 hrs by transwell assay; assay type: functional, cell-based; conditions: dose 5-15 µM
# [3] = system: A549; assay: cells; conditions: Homo sapiens, A549, 72 h
# Description: Anticancer activity against human A549 cells assessed as inhibition of cell proliferation incubated for 72 hrs by MTT assay
# [4] = Toxicity in female BALB/c nude mouse model xenografted with human HGC-27 cells assessed as body weight loss at 30 mg/kg, ip administered for 21 days; assay type: organism-based; conditions: in vivo, 504 h, time 21 day
# [5] = Cytotoxicity against human GES1 cells assessed as inhibition of cell proliferation incubated for 72 hrs by MTT assay; assay type: toxicity, cell-based
# [6] = system: AGS; assay: Anticancer activity against human AGS cells assessed as inhibition of cell proliferation incubated for 72 hrs by MTT assay; assay type: functional, cell-based
# [7] = system: MGC-803; assay: Inhibition of AKT-mTOR signaling in human […] cells assessed as decrease in phosphorylated mTOR expression at 10 to 20 uM incubated for 48 hrs by Western blot analysis; assay type: cell-based; conditions: dose 10-20 µM
# [8] = system: HGC-27; assay: Antitumor activity against human HGC-27 cells xenografted in female BALB/c nude mouse model assessed as reduction in tumor growth at 30 mg/kg/day, ip administered for 21 days relative to control; assay type: functional; parameters: scale not given: the % may be the effect or the level left; conditions: time 21 day
# [9] = system: HGC-27; assay: Downregulation of BMX protein expression in human HGC-27 cells incubated for 48 hrs by Western blot analysis; assay type: functional, cell-based; conditions: dose 5-15 µM
# [10] = Toxicity in female BALB/c nude mouse model xenografted with human HGC-27 cells assessed as effect on spleen at 30 mg/kg, ip administered for 21 days by H and E staining based analysis; assay type: organism-based; conditions: in vivo, 504 h, time 21 day
# [11] = system: NCI-H460; assay: cells; conditions: Homo sapiens, NCI-H460, 72 h
# Description: Anticancer activity against human NCI-H460 cells assessed as inhibition of cell proliferation incubated for 72 hrs by MTT assay
# [12] = target: Cytochrome P450 2D6 (Homo sapiens, UniProt P10635); assay: Inhibition of CYP2D6 in human liver microsomes using dextromethorphan as substrate preincubated for 5 mins followed by NADPH addition and measured after 10 mins by LC-MS/MS analysis; assay type: ADME, Microsome
# Chain of Cytochrome P450 2D6 (P10635 whole entry): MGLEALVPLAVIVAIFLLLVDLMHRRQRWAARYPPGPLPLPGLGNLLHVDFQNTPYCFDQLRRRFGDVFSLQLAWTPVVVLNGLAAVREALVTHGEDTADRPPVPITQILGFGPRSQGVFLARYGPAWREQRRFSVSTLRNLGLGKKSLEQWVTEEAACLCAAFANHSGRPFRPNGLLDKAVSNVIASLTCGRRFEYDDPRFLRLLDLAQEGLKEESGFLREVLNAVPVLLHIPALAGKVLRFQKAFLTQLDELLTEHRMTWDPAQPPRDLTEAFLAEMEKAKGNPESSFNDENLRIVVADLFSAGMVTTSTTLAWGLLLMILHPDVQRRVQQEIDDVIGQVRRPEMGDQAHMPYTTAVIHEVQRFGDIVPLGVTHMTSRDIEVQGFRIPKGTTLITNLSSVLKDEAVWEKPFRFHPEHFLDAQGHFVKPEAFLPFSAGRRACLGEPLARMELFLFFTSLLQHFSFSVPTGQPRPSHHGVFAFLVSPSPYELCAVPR
# [13] = target: Epidermal growth factor receptor (Homo sapiens, UniProt P00533); assay: Inhibition of EGFR (unknown origin) in presence of ATP at Km concentration
# Chain of Epidermal growth factor receptor (Homo sapiens, UniProt P00533) (P00533 whole entry): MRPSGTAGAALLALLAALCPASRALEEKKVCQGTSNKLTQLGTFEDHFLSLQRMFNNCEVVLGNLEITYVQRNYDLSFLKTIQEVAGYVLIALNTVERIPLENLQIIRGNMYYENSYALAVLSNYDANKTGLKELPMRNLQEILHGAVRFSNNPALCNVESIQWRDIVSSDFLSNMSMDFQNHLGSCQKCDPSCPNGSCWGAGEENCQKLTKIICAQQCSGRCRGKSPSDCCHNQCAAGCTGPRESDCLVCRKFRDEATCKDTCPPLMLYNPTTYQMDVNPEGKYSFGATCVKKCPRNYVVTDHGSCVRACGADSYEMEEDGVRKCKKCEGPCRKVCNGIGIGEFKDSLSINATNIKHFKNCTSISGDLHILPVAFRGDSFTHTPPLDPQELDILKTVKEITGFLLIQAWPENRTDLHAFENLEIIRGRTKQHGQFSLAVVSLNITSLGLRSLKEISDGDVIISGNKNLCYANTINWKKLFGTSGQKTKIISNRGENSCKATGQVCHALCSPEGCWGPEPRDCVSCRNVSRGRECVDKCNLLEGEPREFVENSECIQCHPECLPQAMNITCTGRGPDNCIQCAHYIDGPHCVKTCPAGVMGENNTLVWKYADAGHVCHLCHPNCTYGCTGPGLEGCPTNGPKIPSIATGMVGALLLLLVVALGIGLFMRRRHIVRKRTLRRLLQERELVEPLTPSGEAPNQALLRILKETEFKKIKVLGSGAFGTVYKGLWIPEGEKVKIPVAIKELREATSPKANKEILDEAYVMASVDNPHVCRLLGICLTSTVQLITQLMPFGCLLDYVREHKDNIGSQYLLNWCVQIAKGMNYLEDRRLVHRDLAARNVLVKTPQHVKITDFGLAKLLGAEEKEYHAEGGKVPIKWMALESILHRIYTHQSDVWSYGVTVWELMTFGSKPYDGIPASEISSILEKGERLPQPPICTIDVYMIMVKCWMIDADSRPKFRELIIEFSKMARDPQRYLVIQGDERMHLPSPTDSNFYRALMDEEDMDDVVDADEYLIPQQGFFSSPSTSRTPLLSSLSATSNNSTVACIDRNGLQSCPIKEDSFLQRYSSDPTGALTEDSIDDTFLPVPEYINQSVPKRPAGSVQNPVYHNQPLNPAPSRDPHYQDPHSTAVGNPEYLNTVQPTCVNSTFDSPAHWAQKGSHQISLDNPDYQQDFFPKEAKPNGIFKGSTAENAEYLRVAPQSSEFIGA
# [14] = system: HGC-27; assay: Cell cycle arrest in human HGC-27 cells assessed as accumulation of cells at G1 phase at 5 to 15 uM incubated for 48 hrs by flow cytometric analysis; assay type: functional, cell-based; conditions: dose 5-15 µM
# [15] = system: MCF7; assay: Anticancer activity against human MCF7 cells assessed as inhibition of cell proliferation incubated for 72 hrs by MTT assay; assay type: functional, cell-based; conditions: MCF7, 72 h
# [16] = system: HGC-27; assay: Induction of apoptosis in human HGC-27 cells assessed as increase in cleaved caspase 9 level incubated for 48 hrs by Western blot analysis; assay type: functional, cell-based; conditions: dose 5-15 µM
# [17] = system: HGC-27; assay: Induction of apoptosis in human HGC-27 cells assessed as increase in cleaved caspase 3 level incubated for 48 hrs by Western blot analysis; assay type: functional, cell-based; conditions: dose 5-15 µM
# [18] = Oral bioavailability in Sprague-Dawley rat at 5 mg/kg measured after 24 hrs by LC-MS/MS analysis; assay type: ADME, organism-based; conditions: in vivo
# [19] = system: HGC-27; assay: cells; conditions: Homo sapiens, HGC-27, 48 h
# Description: Antiproliferative activity against human HGC-27 cells assessed as inhibition of cell viability incubated for 48 hrs by MTT assay
# [20] = system: MGC-803; assay: Antiproliferative activity against human MGC-803 cells assessed as inhibition of cell viability incubated for 24 to 72 hrs by MTT assay; assay type: functional, cell-based; conditions: dose <= 50.0 µM, time 24-72 hrs
# [21] = system: HGC-27; assay: Induction of apoptosis in LC3B knockout human HGC-27 cells assessed as increase in cleaved caspase 9 level at 15 uM by Western blot analysis; assay type: functional, cell-based
# [22] = Cytotoxicity against HEK293 cells assessed as inhibition of cell proliferation incubated for 72 hrs by MTT assay; assay type: toxicity, cell-based; conditions: human
# [23] = system: MGC-803; assay: Induction of autophagy in human MGC-803 cells assessed as decrease in p62 protein expression incubated for 48 hrs by Western blot analysis; assay type: functional, cell-based; conditions: dose 10-20 µM
# [24] = Metabolic stability in rat liver microsomes assessed as intrinsic clearance at 100 uM measured upto 60 mins in presence of NADPH by LC-MS/MS analysis; assay type: ADME, Microsome; conditions: read-out: CLH
# [25] = system: MGC-803; assay: Induction of apoptosis in human MGC-803 cells assessed as increase in cleaved caspase 9 level incubated for 48 hrs by Western blot analysis; assay type: functional, cell-based; conditions: dose 10-20 µM
# [26] = Cytotoxicity against H9c2 cells assessed as inhibition of cell proliferation incubated for 72 hrs by MTT assay; assay type: toxicity, cell-based; conditions: rat
# [27] = system: CWR22R; assay: cells; conditions: Homo sapiens, 22Rv1, 72 h
# Description: Anticancer activity against human 22Rv1 cells assessed as inhibition of cell proliferation incubated for 72 hrs by MTT assay
# [28] = system: HepG2; assay: Anticancer activity against human HepG2 cells assessed as inhibition of cell proliferation incubated for 72 hrs by MTT assay; assay type: functional, cell-based; conditions: HepG2, 72 h
# [29] = Toxicity in female BALB/c nude mouse model xenografted with human HGC-27 cells assessed as effect on kidney at 30 mg/kg, ip administered for 21 days by H and E staining based analysis; assay type: organism-based; conditions: in vivo, 504 h, time 21 day
# [30] = system: HGC-27; assay: Induction of autophagy in human HGC-27 cells assessed as increase in LC3B protein expression incubated for 48 hrs by Western blot analysis; assay type: functional, cell-based; conditions: dose 5-15 µM
# [31] = system: HeLa; assay: Anticancer activity against human HeLa cells assessed as inhibition of cell proliferation incubated for 72 hrs by MTT assay; assay type: functional, cell-based
# [32] = system: MGC-803; assay: Effect on mTOR expression in human MGC-803 cells at 10 to 20 uM incubated for 48 hrs by Western blot analysis; assay type: functional, cell-based; conditions: dose 10-20 µM
# [33] = target: Epidermal growth factor receptor (Homo sapiens, UniProt P00533, T790M); assay: Inhibition of EGFR T790M (unknown origin) in presence of ATP at Km concentration
# Chain of Epidermal growth factor receptor (Homo sapiens, UniProt P00533, T790M) (P00533 25-1210 T790M limits assumed): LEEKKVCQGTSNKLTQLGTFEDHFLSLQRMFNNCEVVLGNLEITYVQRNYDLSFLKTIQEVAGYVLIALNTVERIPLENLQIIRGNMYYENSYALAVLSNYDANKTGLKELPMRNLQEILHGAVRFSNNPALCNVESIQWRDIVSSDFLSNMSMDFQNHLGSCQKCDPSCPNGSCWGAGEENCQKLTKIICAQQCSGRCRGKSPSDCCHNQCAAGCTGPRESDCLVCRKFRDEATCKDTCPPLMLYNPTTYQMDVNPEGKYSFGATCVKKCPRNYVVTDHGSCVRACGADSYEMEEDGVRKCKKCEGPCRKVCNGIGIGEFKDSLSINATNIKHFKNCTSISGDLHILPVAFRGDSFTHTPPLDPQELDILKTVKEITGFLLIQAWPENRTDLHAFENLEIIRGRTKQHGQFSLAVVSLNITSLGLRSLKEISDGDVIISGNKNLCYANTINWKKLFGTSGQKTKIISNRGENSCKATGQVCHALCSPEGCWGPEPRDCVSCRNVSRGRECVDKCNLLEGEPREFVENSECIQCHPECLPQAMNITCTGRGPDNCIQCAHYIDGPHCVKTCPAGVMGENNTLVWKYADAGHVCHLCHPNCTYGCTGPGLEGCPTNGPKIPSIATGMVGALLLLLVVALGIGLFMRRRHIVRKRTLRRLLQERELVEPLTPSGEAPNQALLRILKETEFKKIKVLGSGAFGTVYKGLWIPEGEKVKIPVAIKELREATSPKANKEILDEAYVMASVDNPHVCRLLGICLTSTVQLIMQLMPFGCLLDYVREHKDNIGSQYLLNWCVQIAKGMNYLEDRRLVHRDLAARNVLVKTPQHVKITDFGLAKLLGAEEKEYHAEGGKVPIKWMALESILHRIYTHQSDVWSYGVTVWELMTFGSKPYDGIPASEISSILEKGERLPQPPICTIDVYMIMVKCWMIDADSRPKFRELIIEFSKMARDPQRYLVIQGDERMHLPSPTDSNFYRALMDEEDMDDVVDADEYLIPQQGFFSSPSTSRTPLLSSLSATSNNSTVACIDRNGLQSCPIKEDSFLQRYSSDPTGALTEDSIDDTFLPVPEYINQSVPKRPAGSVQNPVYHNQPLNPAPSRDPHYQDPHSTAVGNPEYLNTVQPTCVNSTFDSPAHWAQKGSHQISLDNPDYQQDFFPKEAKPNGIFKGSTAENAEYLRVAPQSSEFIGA
# [34] = system: HGC-27; assay: Inhibition of AKT-mTOR signaling in human HGC-27 cells assessed as decrease in phosphorylated mTOR expression at 5 to 15 uM incubated for 48 hrs by Western blot analysis; assay type: cell-based; conditions: dose 5-15 µM
# [35] = Toxicity in female BALB/c nude mouse model xenografted with human HGC-27 cells assessed as effect on heart at 30 mg/kg, ip administered for 21 days by H and E staining based analysis; assay type: organism-based; conditions: in vivo, 504 h, time 21 day
# [36] = system: HGC-27; assay: Antiproliferative activity against human HGC-27 cells assessed as inhibition of cell viability upto 50 uM by MTT assay; assay type: functional, cell-based; conditions: time 24-72 hrs
# [37] = Toxicity in female BALB/c nude mouse model xenografted with human HGC-27 cells assessed as effect on liver at 30 mg/kg, ip administered for 21 days by H and E staining based analysis; assay type: organism-based; conditions: in vivo, 504 h, time 21 day
# [38] = system: MGC-803; assay: cells; conditions: Homo sapiens, MGC-803, 48 h
# Description: Antiproliferative activity against human MGC-803 cells assessed as inhibition of cell viability incubated for 48 hrs by MTT assay
# [39] = system: MGC-803; assay: Inhibition of colony formation in human MGC-803 cells assessed as decrease in clonogenic ability at 2.5 to 10 uM incubated for 48 hrs by crystal violet staining based analysis; assay type: functional, cell-based; conditions: dose 2.5-10 µM
# [40] = system: MGC-803; assay: Induction of apoptosis in human MGC-803 cells assessed as increase in cleaved caspase 3 level incubated for 48 hrs by Western blot analysis; assay type: functional, cell-based; conditions: dose 10-20 µM
smiles,measurement,setting,value
C=CS(=O)(=O)N1CCC[C@@H](Nc2nc(N)nc(Nc3cccc(Oc4ccccc4)c3)n2)C1,inhibition,[1],Active
same,Activity,[2],Active
same,IC50,[3],29.4 µM
same,Activity,[4],Non-toxic
same,IC50 at 72 h,[5],21.2 µM
same,IC50,[6],8 µM
same,inhibition,[7],Active
same,Activity,[8],49.93%
same,Activity,[9],Dose-dependent-effect
same,Activity,[10],Non-toxic
same,IC50,[11],16.7 µM
same,IC50,[12],82 µM
same,IC50,[13],0.468 µM
same,Activity,[14],Active
same,IC50,[15],8.3 µM
same,Activity,[16],Dose-dependent-effect
same,Activity,[17],Dose-dependent-effect
same,bioavailability,[18],6.6%
same,IC50,[19],10.5 µM
same,Activity,[20],Dose-dependent-effect
same,Activity,[21],Active
same,IC50 at 72 h,[22],> 32 µM
same,Activity,[23],Dose-dependent-effect
same,microsomal CLint at 100 µM,[24],304 µL/min/mg
same,Activity,[25],Dose-dependent-effect
same,IC50 at 72 h,[26],> 32 µM
same,IC50,[27],13.4 µM
same,IC50,[28],> 32 µM
same,Activity,[29],Non-toxic
same,Activity,[30],Dose-dependent-effect
same,IC50,[31],6.5 µM
same,Activity,[32],inactive
same,IC50,[33],0.177 µM
same,inhibition,[34],Active
same,Activity,[35],Non-toxic
same,Activity,[36],Time-dependent-effect
same,Activity,[37],Non-toxic
same,IC50,[38],15.2 µM
same,inhibition,[39],Active
same,Activity,[40],Dose-dependent-effect
